Assay results published in paper PMC10682394, “A papain-like cysteine protease-released small signal peptide confers wheat resistance to wheat yellow mosaic virus” (Nature Communications, 2023).
Peptide text beside a SMILES is read from it. * marks the point of attachment. AMC = Cc1cc(=O)oc2cc(N*)ccc12; Cbz = O=C(OCc1ccccc1)*

Molecular target: T1, TaRD21A (TaRD21A^S; TaRD21A^R in A96S rows) (Triticum aestivum, UniProt A0A3B6DKH2)
T1 construct: gene LOC123054921; GST fusion from E. coli BL21 (purified), or RFP fusion expressed in N. benthamiana leaves (apoplastic fluid); active bands 25-40 kDa
T1 sequence (A0A3B6DKH2 24-463, stated change not applied): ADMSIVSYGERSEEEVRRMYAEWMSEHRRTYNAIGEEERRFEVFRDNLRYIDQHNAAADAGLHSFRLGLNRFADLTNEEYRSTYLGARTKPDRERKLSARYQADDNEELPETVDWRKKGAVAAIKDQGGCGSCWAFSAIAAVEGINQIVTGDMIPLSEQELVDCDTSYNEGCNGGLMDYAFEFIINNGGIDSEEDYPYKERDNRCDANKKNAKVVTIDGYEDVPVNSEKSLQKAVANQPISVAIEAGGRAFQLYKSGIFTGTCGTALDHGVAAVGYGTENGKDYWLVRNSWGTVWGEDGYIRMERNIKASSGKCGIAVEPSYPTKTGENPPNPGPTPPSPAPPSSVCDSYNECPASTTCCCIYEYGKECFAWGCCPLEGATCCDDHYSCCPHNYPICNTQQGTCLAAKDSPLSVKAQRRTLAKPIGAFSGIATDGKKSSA
Assay: fluorescent substrate assay, purified TaRD21A^S-GST
Assay type: biochemical
Settings: 10 uM substrate

SMILES | fluorescent substrate assay, purified TaRD21A^S-GST (RR motif) | fluorescent substrate assay, purified TaRD21A^S-GST (FR motif)
Cc1cc(=O)oc2cc(NC(=O)[C@H](CCCNC(=N)N)NC(=O)[C@H](CCCNC(=N)N)NC(=O)OCc3ccccc3)ccc12 [Z-Arg-Arg-AMC] (Cbz-Arg-Arg-{AMC}) | examined using fluorescent substrates containing RR/FR motifs | 
Cc1cc(=O)oc2cc(NC(=O)[C@H](CCCNC(=N)N)NC(=O)[C@H](Cc3ccccc3)NC(=O)OCc3ccccc3)ccc12 [Z-Phe-Arg-7-amido-4-methylcoumarin] (Cbz-Phe-Arg-{AMC}) |  | examined using fluorescent substrates containing RR/FR motifs
